Two molecules from patent US9611272B2, “Polymorphic forms of icotinib and uses thereof” (BETTA PHARMACEUTICALS CO., LTD, priority 2013, dated 2017) can be followed below.

Structures can show the parent of a compound that is named as a salt. Where two headings read alike, the source gives them in different places.

This data set in a line: Pharmacokinetic study of Icotinib hydrochloride and Polymorph Form II of Icotinib, oral suspension, plasma by HPLC. Format: in vivo. As to conditions: fasted male SD rats, oral suspension in sodium carboxymethyl cellulose, dose equivalent to 50 mg/kg Icotinib. The source says:
Pharmacokinetic Study of Icotinib Hydrochloride and the Polymorph Form II of Icotinib
Drugs and reagents: the Icotinib hydrochloride used in this study was of Crystalline Form I disclosed by the WO2010/003313. Polymorph Form II of Icotinib and Icotinib hydrochloride were ground to fine particles. The material content (purity) was not less than 99.0%. Sodium carboxymethyl cellulose was medical supply graded.
Experimental animals: SD rats were divided to the Icotinib hydrochloride group and a Polymorph Form II group.
Pharmaceutical preparation: the amount of each compound was weighed and then sodium carboxymethyl cellulose was added to result in the test compound's concentration of 0.5%. The solid mixture was then added to prepare a suspension thereof at a final concentration of […] in water.
Administration and sample collection: each suspension was administered orally to fasted SD rats at a dose equivalent to 50 mg/kg Icotinib in a dose volume of 5 ml/kg. 0.4 ml of blood was collected in EDTA-K pre anticoagulant tubes at time intervals of 0.5, 1, 1.5, 2, 4, 6, 8 and 24 hours after the administration of the test compound, centrifuged at 3000 rpm for 10 minutes, and 120 μl plasma was collected and kept in cold storage.
Samples were analyzed by high performance liquid chromatography. The chromatographic conditions utilized C18-silane bonded silica as stationary phase, 0.02 mol/L of sodium dihydrogen phosphate in acetonitrile (40:60, using sodium hydroxide solution to adjust pH to 5.0) as the mobile phase and a detection wavelength of 334 nm.

For orientation: Tmax means the time from dosing to the highest level. The AUC(0-inf) is total exposure, with the tail of the curve extrapolated. The term half-life denotes the time needed for the level to fall by half in the phase considered. For orientation: Cmax means the highest concentration seen after dosing. Regarding `C#Cc1cccc(Nc2ncnc3cc4c(cc23)OCCOCCOCCO4)c1` [Icotinib hydrochloride], the Tmax (hydrochloride) is on record as 1.3 ± 1.1 h. Under “male, SD, rat, po, 50 mg/kg”, the area under the curve AUC(0-inf) worked out at 39800 ± 28500 ng·h/mL and the half-life is 3.1 ± 1.4 h. Under “male, SD, rat, po, 50 mg/kg, read-out: AUC(0-24)”, the AUC(0-t) came out at 39200 ± 27600 ng·h/mL. The Cmax (male, SD, rat, po, 50 mg/kg, read-out: Cmax) amounted to 4900 ± 2600 ng/mL.
Regarding `C#Cc1cccc(Nc2ncnc3cc4c(cc23)OCCOCCOCCO4)c1` [Polymorph Form II of Icotinib, Icotinib], the “AUC(0-24)” value stood at 62400 ± 30100 ng·h/mL, the “AUC(0-∞)” value was 63000 ± 30000 ng·h/mL, the Cmax was determined as 5800 ± 2600 ng/mL and the T1/2 worked out at 3.5 ± 0.6 h. Moreover, the time to peak (Tmax) is 4.5 ± 2.6 h.
